Source: ChEMBL document CHEMBL1147984, “Discovery, synthesis, and in vivo activity of a new class of pyrazoloquinazolines as selective inhibitors of aurora B kinase” (J Med Chem, 2007)
pIC50, pKi: −log10 of the molar value. In brackets after ≈: the same amount, converted by molar mass. Several values for one entry are separate records, joined by “and”; a condition that tells them apart may be missing. Equal entries are not always repeated.

Experiments:
[1] = protein binding; format: ADME; details: read-out: PB (converted)
[2] = aqueous solubility; format: physicochemical; details: read-out: S
Aurora kinase B = Aurora kinase B (Homo sapiens, UniProt Q96GD4)
Description: Inhibition of human recombinant Aurora B

Aurora kinase A [3] = target: T1, Aurora kinase A (Homo sapiens, UniProt O14965)
T1 sequence (O14965 whole entry): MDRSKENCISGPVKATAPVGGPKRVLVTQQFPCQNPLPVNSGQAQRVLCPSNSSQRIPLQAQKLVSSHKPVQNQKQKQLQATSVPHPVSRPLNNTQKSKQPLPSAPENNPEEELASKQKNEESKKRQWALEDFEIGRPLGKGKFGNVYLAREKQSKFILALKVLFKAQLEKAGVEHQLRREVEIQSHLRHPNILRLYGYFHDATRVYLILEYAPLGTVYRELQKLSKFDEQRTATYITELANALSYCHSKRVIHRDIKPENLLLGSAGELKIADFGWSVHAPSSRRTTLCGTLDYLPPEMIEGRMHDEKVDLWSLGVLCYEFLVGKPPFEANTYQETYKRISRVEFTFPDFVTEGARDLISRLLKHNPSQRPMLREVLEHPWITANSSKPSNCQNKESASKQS
Description: (§1) Inhibition of human recombinant Aurora A

Aurora kinase A [4] = target: T1, Aurora kinase A; remark: listed apart in the source
Description: as §1

physchem = details: octanol/water, pH 7.4
[5] = P450 isoforms 3A4; format: ADME
[6] = rat
in vivo = details: rat
[7] = solubility (tris buffer pH9); format: physicochemical; details: pH 9, read-out: S

Chain of Aurora kinase B (Q96GD4 whole entry): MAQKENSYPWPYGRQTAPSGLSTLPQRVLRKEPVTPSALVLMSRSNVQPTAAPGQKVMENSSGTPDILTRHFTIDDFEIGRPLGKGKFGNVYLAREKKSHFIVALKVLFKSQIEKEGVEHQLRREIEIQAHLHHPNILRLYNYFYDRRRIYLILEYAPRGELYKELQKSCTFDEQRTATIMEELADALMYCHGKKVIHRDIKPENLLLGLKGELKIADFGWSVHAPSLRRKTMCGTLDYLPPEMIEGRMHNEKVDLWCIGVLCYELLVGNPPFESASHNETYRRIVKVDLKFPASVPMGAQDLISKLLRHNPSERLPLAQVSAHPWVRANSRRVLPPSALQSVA
Description for SW-620: inhibition of histone-H3 phosphorylation following 24 hr incubation in SW620 tumor cells

| SMILES | pKi (SW-620) | pKi (Aurora kinase B) | pKi (Aurora kinase A [3]) | other results |
| --- | --- | --- | --- | --- |
| COc1cc2c(Nc3ncc(CC(=O)Nc4cccc(F)c4)s3)ncnc2cc1OCCCN1CCC(CO)CC1 | 8.30 | – | – | fraction unbound [1]: 0.02 |
| COc1cc2c(Nc3ncc(CC(=O)Nc4cccc(F)c4)s3)ncnc2cc1OCCCN1CCC(COP(=O)(O)O)CC1 | – | – | – | solubility [2]: > 10 mg/mL |
| CCCN(CCO)CCCOc1ccc2c(Nc3cc(CC(=O)Nc4cccc(F)c4F)[nH]n3)ncnc2c1 | 8.70 | > 9.00 | 6.46 | – |
| COc1cc2c(Nc3cc(CC(=O)Nc4cccc(F)c4F)[nH]n3)ncnc2cc1OCCCN1CCC(O)CC1 | 7.11 | > 9.00 | 6.66 | – |
| COc1cc2c(Nc3cc(CC(=O)Nc4cccc(F)c4F)[nH]n3)ncnc2cc1OCCCN1CCC[C@H]1CO | 7.35 | > 9.00 | 7.41 | – |
| O=C(Cc1cc(Nc2ncnc3cc(OCCCN4CCC[C@@H]4CO)ccc23)n[nH]1)Nc1cccc(F)c1F | 8.30 | > 9.00 | 6.02 | AB [6]: 89%; clearance (in vivo): 15 mL/min/kg; logD (physchem): 2.1 |
| CCCN(CCCOc1cc2ncnc(Nc3cc(CC(=O)Nc4cccc(F)c4F)[nH]n3)c2cc1OC)CCOP(=O)(O)O | – | – | – | solubility [7]: 25 mg/mL (≈ 38.5 mM) |
| O=C(Cc1cc(Nc2ncnc3cc(OCCCN4CCC[C@@H]4CO)ccc23)n[nH]1)Nc1cccc(F)c1 | 7.62 | > 9.00 | 5.85 | – |
| CCN(CCO)CCCOc1ccc2c(Nc3cc(CC(=O)Nc4cccc(F)c4F)[nH]n3)ncnc2c1 | 8.15 | > 9.00 | 6.80 | – |
| COc1cc2c(Nc3cc(CC(=O)Nc4cc(F)cc(F)c4)[nH]n3)ncnc2cc1OCCCN1CCC(CO)CC1 | 6.43 | – | – | – |
| COc1cc2c(Nc3cc(CC(=O)Nc4cccc(F)c4F)[nH]n3)ncnc2cc1OCCCN1CCC(CO)CC1 | 6.27 | – | – | – |
| COc1cc2c(Nc3cc(CC(=O)Nc4cccc(F)c4F)[nH]n3)ncnc2cc1OCCCN1CCC(CCO)CC1 | 6.89 | > 9.00 | 6.55 | – |
| COc1cc2c(Nc3cc(CC(=O)Nc4cccc(F)c4F)[nH]n3)ncnc2cc1OCCCN1CCC[C@@H]1CO | 7.38 | 9.00 | 7.03 | AB [6]: 85%; clearance (in vivo): 63 mL/min/kg; logD (physchem): 2; fraction unbound [1]: 0.15 |
| COc1cccc(NC(=O)Cc2cc(Nc3ncnc4cc(OCCCN5CCC(CO)CC5)c(OC)cc34)[nH]n2)c1 | 5.26 | – | – | – |
| COc1cc2c(Nc3cc(CC(=O)Nc4cccc(F)c4F)[nH]n3)ncnc2cc1OCCCN1CCC[C@@H]1COP(=O)(O)O | – | – | – | solubility [7]: 25 mg/mL (≈ 38.6 mM) |
| COc1cc2c(Nc3cc(CC(=O)Nc4cccc(F)c4F)[nH]n3)ncnc2cc1OCCCN1CCN(CCO)CC1 | 7.15 | > 9.00 | 7.26 | – |
| COc1cc2c(Nc3cc(CC(=O)Nc4ccccc4)[nH]n3)ncnc2cc1OCCCN1CCC(CO)CC1 | – | – | 5.80 and 5.92 | pKi (Aurora kinase A [4]): 7.74 |
| O=C(Cc1cc(Nc2ncnc3cc(OCCCN4CCC[C@@H]4COP(=O)(O)O)ccc23)n[nH]1)Nc1cccc(F)c1F | – | – | – | solubility [7]: 25 mg/mL (≈ 40.5 mM) |
| COc1cc2c(Nc3cc(CC(=O)Nc4ccccc4F)[nH]n3)ncnc2cc1OCCCN1CCC(CO)CC1 | – | – | 5.85 and 6.33 | pKi (Aurora kinase A [4]): 7.85 |
| CCN(CCCOc1ccc2c(Nc3cc(CC(=O)Nc4cccc(F)c4)n[nH]3)ncnc2c1)CCOP(=O)(O)O [BARASERTIB] | – | – | – | solubility [7]: 25 mg/mL (≈ 42.5 mM) |

Continued, in another order:

| pKi (SW-620) | pKi (Aurora kinase B) | pKi (Aurora kinase A [3]) | SMILES | other results |
| --- | --- | --- | --- | --- |
| 6.92 | > 9.00 | 7.19 | COc1cc2c(Nc3cc(CC(=O)Nc4cccc(F)c4)[nH]n3)ncnc2cc1OCCCN(C)CCO | – |
| < 5.00 | – | 5.40 | COc1cc2c(Nc3cc(CC(=O)Nc4cccc(O)c4)[nH]n3)ncnc2cc1OCCCN1CCC(CO)CC1 | pKi (Aurora kinase A [4]): 6.85 |
| 7.35 | > 9.00 | 6.44 | CCN(CCO)CCCOc1cc2ncnc(Nc3cc(CC(=O)Nc4cccc(F)c4F)[nH]n3)c2cc1OC | logD (physchem): 1.9; fraction unbound [1]: 0.17; pIC50 [5]: < 5.00 |
| 6.57 | 9.00 | 6.72 | CCN(CCO)CCCOc1cc2ncnc(Nc3cc(CC(=O)Nc4cccc(F)c4)[nH]n3)c2cc1OC | logD (physchem): 2.1; fraction unbound [1]: 0.05 |
| 8.15 | > 9.00 | 6.01 | CCCN(CCO)CCCOc1ccc2c(Nc3cc(CC(=O)Nc4cccc(F)c4)[nH]n3)ncnc2c1 | – |
| 5.92 | – | 6.35 | COc1cc2c(Nc3cc(CC(=O)Nc4cccc(Cl)c4)[nH]n3)ncnc2cc1OCCCN1CCC(CO)CC1 | pKi (Aurora kinase A [4]): 8.10 |
| > 9.00 | > 9.00 | 7.74 | COc1cc2c(Nc3cc(CC(=O)Nc4cccc(F)c4F)[nH]n3)ncnc2cc1OCCCN(CCO)CC(C)C | logD (physchem): 3.6; pIC50 [5]: 6.40 |
| 5.59 | – | 5.70 | COc1cc2c(Nc3cc(CC(=O)Nc4ccc(F)cc4)[nH]n3)ncnc2cc1OCCCN1CCC(CO)CC1 | pKi (Aurora kinase A [4]): 7.52 |
| < 5.00 | – | 5.59 | COc1cc2c(Nc3cc(CC(=O)Nc4cccc(C#N)c4)[nH]n3)ncnc2cc1OCCCN1CCC(CO)CC1 | pKi (Aurora kinase A [4]): 7.08 |
| 6.54 | 8.70 | 6.66 | CCCN(CCO)CCCOc1cc2ncnc(Nc3cc(CC(=O)Nc4cccc(F)c4)[nH]n3)c2cc1OC | – |
| < 5.00 | – | 6.05 | COc1cc2c(Nc3cc(CC(=O)Nc4cccc([N+](=O)[O-])c4)[nH]n3)ncnc2cc1OCCCN1CCC(CO)CC1 | pKi (Aurora kinase A [4]): 7.41 |
| 6.20 | 9.00 | 6.16 | COc1cc2c(Nc3cc(CC(=O)Nc4cccc(F)c4)[nH]n3)ncnc2cc1OCCCNCCO | – |
| 5.74 | 6.29 | – | COc1cc2c(Nc3cc(CC(=O)Nc4cccc(C(F)(F)F)c4)[nH]n3)ncnc2cc1OCCCN1CCC(CO)CC1 | pKi (Aurora kinase A [4]): 7.89 |
| 6.48 | 9.00 | 6.96 | COc1cc2c(Nc3cc(CC(=O)Nc4cccc(F)c4)[nH]n3)ncnc2cc1OCCCN1CCC[C@@H]1CO | fraction unbound [1]: 0.05 |
